Data as given in US20140017336A1, “CO-ADMINISTRATION OF ARSENIC COMPOUNDS AND ANTI-HERPES VIRUS ANTI-VIRALS” (priority 2011, published 2014).

How the values were obtained:
[1] = system: LMP1 dependent upregulation of PML NBs; assay: Transfection/inhibitor studies of LMP1 upregulation of PML NBs; type: cell-based
Experimental: A series of transfection/inhibitor studies were carried out to investigate the mechanism of upregulation of the PML-NB by LMP1. […] Either inhibition of ERK phosphorylation by U0126 or Stat3 dimerization by Stattic, however, prevented the LMP1 dependent upregulation of PML NBs.

LCL<EBV1-13> cells = type: cell-based, human
[2] = system: uninfected parental A549 cells; conditions: 4 days, 10 nM ATO, 40 μM GCV
EBV Zta mRNA = type: cell-based, Epstein-Barr virus
EBV BMRF1 mRNA = type: cell-based, Epstein-Barr virus; conditions: 10 nM ATO and/or 40 μM GCV
CNE1<EBV BX1> tumors = assay: CNE1<EBV BX1> nasopharyngeal carcinoma xenograft, tumor volume; type: in vivo, male nude mice; conditions: 21 days of once daily treatment; GCV 100 μg/g, ATO 100 ng/g; carrier control just under double
EBV Zta protein = type: in vivo, male nude mice; conditions: mouse, in vivo
[3] = system: APL and non-APL cell lines; conditions: Konig et al., 1997; cited from earlier work
[4] = system: nonmalignant blood mononuclear cells from normal donors; conditions: cited from earlier work

O=[N+]([O-])c1ccc2c(c1)S(=O)(=O)C=C2 [Stattic]
effect on LMP1 upregulation of PML NBs [1]: prevented

Nc1nc2c(ncn2COC(CO)CO)c(=O)[nH]1 [GCV, 9-[[2-hydroxy-1-(hydroxymethyl)-ethoxy]methyl]guanine]
viable cells after a third day of treatment compared with two days (LCL<EBV1-13> cells): did not result in reducing the number of viable cells
viability of uninfected parental cells [2]: did not affect the viability
Zta mRNA expression over 7 days (EBV Zta mRNA): no effect
BMRF1 mRNA expression over 7 days (EBV BMRF1 mRNA): no effect
tumor size increase over size at day 7 (pre-treatment) (CNE1<EBV BX1> tumors): approximately 25%
Zta expression in tumor explant tissue (EBV Zta protein): Only the occasional Zta positive cell

Nc1nc(N)nc(Nc2ccc([As]3SCC(CO)S3)cc2)n1 (centres unmarked) [Melarsoprol, melarsoprol]
activity against APL and non-APL cell lines [3]: at least equivalent to that of arsenic trioxide

N#CC(=C(/N)Sc1ccccc1N)/C(C#N)=C(\N)Sc1ccccc1N [U0126]
effect on LMP1 upregulation of PML NBs [1]: prevented

C[As](C)SC[C@H](NC(=O)CC[C@H](N)C(=O)O)C(=O)NCC(=O)O [SGLU1, S-(dimethylarsino) glutathione]
toxicity against nonmalignant blood mononuclear cells [4]: low toxicity

Cc1ccc(NCCCc2ccccc2)c(N)c1 [JSH23]
effect on LMP1 upregulation of PML NBs [1]: did not affect
